The NIST ThermoML archive (doi:10.1016/j.jct.2019.02.028)
Several values for one entry are separate records, joined by “and”; a condition that tells them apart may be missing. Equal entries are not always repeated. Numbers after ± are expanded uncertainties.

Test: xn = mol fraction of the nth substance listed
Details: Gas, Burnett expansion method

C=C(F)C(F)(F)F [2,3,3,3-tetrafluoro-1-propene] + FCF
Details	mass density
373.17 K, 4066.8 kPa, x2 = 0.259	238.02 ± 2.8 kg/m3
373.17 K, 4925.9 kPa, x2 = 0.874	143.64 ± 2.3 kg/m3
373.18 K, 619.83 kPa, x2 = 0.259	20.68 ± 0.16 kg/m3
373.18 K, 900.76 kPa, x2 = 0.449	26.92 ± 0.23 kg/m3
373.18 K, 906.18 kPa, x2 = 0.259	31.05 ± 0.22 kg/m3
373.18 K, 916.21 kPa, x2 = 0.874	18.76 ± 0.21 kg/m3
373.18 K, 1093.4 kPa, x2 = 0.119	41.92 ± 0.24 kg/m3
373.18 K, 1339 kPa, x2 = 0.874	28.18 ± 0.32 kg/m3
373.18 K, 1863.1 kPa, x2 = 0.449	60.74 ± 0.57 kg/m3
373.18 K, 2517.6 kPa, x2 = 0.259	105.24 ± 1.2 kg/m3
373.18 K, 2728.4 kPa, x2 = 0.874	63.56 ± 0.72 kg/m3
373.18 K, 3301.3 kPa, x2 = 0.259	158.31 ± 2.2 kg/m3
373.19 K, 755.34 kPa, x2 = 0.119	27.91 ± 0.14 kg/m3
373.19 K, 1931.1 kPa, x2 = 0.874	42.32 ± 0.49 kg/m3
373.19 K, 2828.2 kPa, x2 = 0.119	142.15 ± 1.3 kg/m3
373.2 K, 624.61 kPa, x2 = 0.874	12.49 ± 0.15 kg/m3
373.2 K, 3505 kPa, x2 = 0.119	213.51 ± 3.3 kg/m3
373.2 K, 4006.2 kPa, x2 = 0.119	320.47 ± 6.9 kg/m3
373.2 K, 4661.9 kPa, x2 = 0.259	359.6 ± 5 kg/m3
373.21 K, 1306.4 kPa, x2 = 0.259	46.64 ± 0.34 kg/m3
378.05 K, 2079.9 kPa, x2 = 0.698	53.99 ± 0.5 kg/m3
378.06 K, 1451.7 kPa, x2 = 0.698	35.94 ± 0.32 kg/m3
378.07 K, 5426.1 kPa, x2 = 0.449	308.92 ± 3.2 kg/m3
378.08 K, 622.36 kPa, x2 = 0.449	17.91 ± 0.16 kg/m3
378.08 K, 2782.2 kPa, x2 = 0.874	63.55 ± 0.72 kg/m3
378.08 K, 2911.8 kPa, x2 = 0.698	81.09 ± 0.78 kg/m3
378.08 K, 3552.8 kPa, x2 = 0.449	136.97 ± 1.5 kg/m3
378.08 K, 4525.2 kPa, x2 = 0.449	205.67 ± 2.4 kg/m3
378.09 K, 1328.7 kPa, x2 = 0.449	40.42 ± 0.36 kg/m3
378.09 K, 1878.5 kPa, x2 = 0.259	70.04 ± 0.61 kg/m3
378.09 K, 2649.2 kPa, x2 = 0.449	91.19 ± 0.93 kg/m3
378.09 K, 3936.7 kPa, x2 = 0.698	121.78 ± 1.5 kg/m3
378.09 K, 4937.5 kPa, x2 = 0.259	358.03 ± 3.3 kg/m3
378.09 K, 5074.6 kPa, x2 = 0.698	182.93 ± 2.3 kg/m3
378.1 K, 678.04 kPa, x2 = 0.698	15.93 ± 0.14 kg/m3
378.1 K, 920.5 kPa, x2 = 0.259	31.05 ± 0.22 kg/m3
378.1 K, 997.84 kPa, x2 = 0.698	23.93 ± 0.21 kg/m3
378.1 K, 1582.4 kPa, x2 = 0.119	62.96 ± 0.36 kg/m3
378.1 K, 1897.6 kPa, x2 = 0.449	60.71 ± 0.56 kg/m3
378.1 K, 2190.4 kPa, x2 = 0.119	94.57 ± 0.59 kg/m3
378.1 K, 3832.4 kPa, x2 = 0.874	95.49 ± 1.1 kg/m3
378.1 K, 4232.9 kPa, x2 = 0.259	237.67 ± 2.6 kg/m3
378.1 K, 5071.5 kPa, x2 = 0.874	143.48 ± 2.2 kg/m3
378.11 K, 629.16 kPa, x2 = 0.259	20.67 ± 0.16 kg/m3
378.11 K, 767.1 kPa, x2 = 0.119	27.9 ± 0.14 kg/m3
378.11 K, 914.69 kPa, x2 = 0.449	26.91 ± 0.23 kg/m3
378.11 K, 1360.2 kPa, x2 = 0.874	28.17 ± 0.32 kg/m3
378.11 K, 1964.7 kPa, x2 = 0.874	42.31 ± 0.49 kg/m3
378.11 K, 2577.3 kPa, x2 = 0.259	105.22 ± 1.2 kg/m3
378.11 K, 2909.1 kPa, x2 = 0.119	142.06 ± 1.3 kg/m3
378.12 K, 633.28 kPa, x2 = 0.874	12.49 ± 0.15 kg/m3
378.12 K, 929.88 kPa, x2 = 0.874	18.75 ± 0.21 kg/m3
378.12 K, 1329.1 kPa, x2 = 0.259	46.64 ± 0.34 kg/m3
378.12 K, 3399.6 kPa, x2 = 0.259	158.16 ± 2.1 kg/m3
378.12 K, 3642.1 kPa, x2 = 0.119	213.38 ± 3 kg/m3
378.12 K, 4237.1 kPa, x2 = 0.119	320.38 ± 5.9 kg/m3
378.13 K, 1112 kPa, x2 = 0.119	41.91 ± 0.24 kg/m3
382.98 K, 1475.1 kPa, x2 = 0.698	35.93 ± 0.32 kg/m3
382.98 K, 2117.2 kPa, x2 = 0.698	53.97 ± 0.49 kg/m3
382.99 K, 631.25 kPa, x2 = 0.449	17.91 ± 0.16 kg/m3
383 K, 1350.2 kPa, x2 = 0.449	40.4 ± 0.35 kg/m3
383 K, 2705.6 kPa, x2 = 0.449	91.15 ± 0.92 kg/m3
383 K, 2835.7 kPa, x2 = 0.874	63.53 ± 0.72 kg/m3
383 K, 3918.9 kPa, x2 = 0.874	95.42 ± 1.1 kg/m3
383 K, 4682.2 kPa, x2 = 0.449	205.63 ± 2.3 kg/m3
383 K, 5686.5 kPa, x2 = 0.449	308.85 ± 3.3 kg/m3
383.01 K, 928.35 kPa, x2 = 0.449	26.9 ± 0.23 kg/m3
383.01 K, 1476 kPa, x2 = 0.698	35.93 ± 0.32 kg/m3
383.01 K, 2118 kPa, x2 = 0.698	53.97 ± 0.49 kg/m3
383.01 K, 2705.6 kPa, x2 = 0.449	91.15 ± 0.92 kg/m3
383.01 K, 2972.2 kPa, x2 = 0.698	81.06 ± 0.77 kg/m3
383.01 K, 3646.5 kPa, x2 = 0.449	136.9 ± 1.5 kg/m3
383.01 K, 4036.2 kPa, x2 = 0.698	121.75 ± 1.5 kg/m3
383.01 K, 4682.4 kPa, x2 = 0.449	205.63 ± 2.3 kg/m3
383.01 K, 5245.7 kPa, x2 = 0.698	182.87 ± 2.2 kg/m3
383.02 K, 928.34 kPa, x2 = 0.449	26.9 ± 0.23 kg/m3
383.02 K, 1012.8 kPa, x2 = 0.698	23.92 ± 0.21 kg/m3
383.02 K, 1381.5 kPa, x2 = 0.874	28.16 ± 0.32 kg/m3
383.02 K, 1914.9 kPa, x2 = 0.259	70.04 ± 0.65 kg/m3
383.02 K, 1937.6 kPa, x2 = 0.449	60.69 ± 0.56 kg/m3
383.02 K, 1937.7 kPa, x2 = 0.449	60.69 ± 0.56 kg/m3
383.02 K, 2238 kPa, x2 = 0.119	94.52 ± 0.66 kg/m3
383.02 K, 2635.6 kPa, x2 = 0.259	105.19 ± 1.1 kg/m3
383.02 K, 2635.8 kPa, x2 = 0.259	105.19 ± 1.1 kg/m3
383.02 K, 2972.4 kPa, x2 = 0.698	81.06 ± 0.77 kg/m3
383.02 K, 3646.6 kPa, x2 = 0.449	136.9 ± 1.5 kg/m3
383.02 K, 3919.7 kPa, x2 = 0.874	95.42 ± 1.1 kg/m3
383.02 K, 4035.8 kPa, x2 = 0.698	121.75 ± 1.5 kg/m3
383.02 K, 4396.6 kPa, x2 = 0.259	237.32 ± 2.4 kg/m3
383.02 K, 5211.2 kPa, x2 = 0.259	356.45 ± 6.4 kg/m3 and 356.44 ± 6.4 kg/m3
383.02 K, 5215.7 kPa, x2 = 0.874	143.31 ± 2.2 kg/m3
383.02 K, 5215.8 kPa, x2 = 0.874	143.31 ± 2.2 kg/m3
383.02 K, 5245.8 kPa, x2 = 0.698	182.87 ± 2.2 kg/m3
383.03 K, 934.81 kPa, x2 = 0.259	31.04 ± 0.22 kg/m3
383.03 K, 1350.5 kPa, x2 = 0.449	40.4 ± 0.35 kg/m3
383.03 K, 1351.5 kPa, x2 = 0.259	46.63 ± 0.34 kg/m3
383.03 K, 1381.4 kPa, x2 = 0.874	28.16 ± 0.32 kg/m3
383.03 K, 1611.8 kPa, x2 = 0.119	62.93 ± 0.39 kg/m3
383.03 K, 1611.9 kPa, x2 = 0.119	62.93 ± 0.39 kg/m3
383.03 K, 1915 kPa, x2 = 0.259	70.04 ± 0.65 kg/m3
383.03 K, 1998.1 kPa, x2 = 0.874	42.29 ± 0.48 kg/m3
383.03 K, 2238.3 kPa, x2 = 0.119	94.52 ± 0.66 kg/m3
383.03 K, 2836.1 kPa, x2 = 0.874	63.53 ± 0.72 kg/m3
383.03 K, 2989.1 kPa, x2 = 0.119	141.97 ± 1.2 kg/m3
383.03 K, 3496.5 kPa, x2 = 0.259	158 ± 2.1 kg/m3
383.03 K, 3777.6 kPa, x2 = 0.119	213.24 ± 2.7 kg/m3
383.03 K, 4397.4 kPa, x2 = 0.259	237.31 ± 2.4 kg/m3
383.03 K, 4464.7 kPa, x2 = 0.119	320.28 ± 5.2 kg/m3
383.03 K, 4465 kPa, x2 = 0.119	320.28 ± 5.2 kg/m3
383.04 K, 638.24 kPa, x2 = 0.259	20.67 ± 0.16 kg/m3
383.04 K, 642.12 kPa, x2 = 0.874	12.48 ± 0.15 kg/m3
383.04 K, 688.17 kPa, x2 = 0.698	15.93 ± 0.14 kg/m3
383.04 K, 778.8 kPa, x2 = 0.119	27.9 ± 0.14 kg/m3
383.04 K, 943.49 kPa, x2 = 0.874	18.75 ± 0.21 kg/m3
383.04 K, 1130.2 kPa, x2 = 0.119	41.9 ± 0.25 kg/m3
383.04 K, 1998.1 kPa, x2 = 0.874	42.29 ± 0.48 kg/m3
383.04 K, 2989.2 kPa, x2 = 0.119	141.97 ± 1.2 kg/m3
383.04 K, 3777.7 kPa, x2 = 0.119	213.24 ± 2.7 kg/m3
383.05 K, 943.52 kPa, x2 = 0.874	18.75 ± 0.21 kg/m3
383.05 K, 3496.8 kPa, x2 = 0.259	158 ± 2.1 kg/m3
383.06 K, 935.34 kPa, x2 = 0.259	31.04 ± 0.22 kg/m3
383.06 K, 1130.4 kPa, x2 = 0.119	41.9 ± 0.25 kg/m3
